Patent US10342796B2, “Acrylanilide derivative, preparation method, and applications thereof in pharmacy” (Ancureall Pharmaceutical (Shanghai) Co., Ltd., priority 2015, dated 2019)
Read-outs that look alike come from different tables or passages of the source.

Legend:
Experiment in all cases: Growth inhibition GI50 in vitro (CCK8/MTT, 72 h)
Assay type in all cases: cell-based, human
H1975 (EGFR L858R/T790M) = conditions: Homo sapiens, NCI-H1975
Experimental: (§1) PC-9ER is an acquired Erlotinib resistance cell line of PC-9 cells developed by the investor. […] The four cell lines above were cultured with 1×RPMI1640 complete medium (supplement with 10% FBS). Human colon cancer cell line SW48 (EGFR G719S positive, ATCC). was cultured with L15 complete medium (10% FB S).
(§2) The suspension cells were collected by centrifugation. The supernatant was discard and the cell pellet was resuspended and counted. Different cell concentrations (5˜10×10^4 cells/mL) were prepared according to the growth cycle of each cell line and then seeded on a 96-well plate (Corning), 100 μL/well. The cells were incubated over night at 37° C., 5% CO2. The compounds were added to the cells on the second day with 2 wells in parallel. The final concentration of organic solvent shall not exceed 1%. The cells were continually incubated for 72 h, and then subjected to MTT assay.
(§3) The present compounds and the reference compounds were dissolved with DMSO (Sigma), respectively. […] The storage concentration of compounds was 10 mM and kept at −20° C. They were diluted by 2 times or 10 times with serial dilution before using.
(§4) Dojindo CCK8 reagent kit was used as MTT assay. […] FC meter was used as microplate reader.
(§5) Adherent cell culture medium was discard and immediately replaced with fresh prepared medium which contains 10% CCK8 reagent (100 μL/well). For the suspension cells, CCK8 was directly added to 10% of the final concentration. The cells were continually incubated for 1˜4 h. When the color of control wells turned to dark yellow, the absorption value was measured at OD450 nm. The cell growth rate was calculated according to the following formula: cell growth rate (%)=100*(T−T0)/(C−T0), T=optical density of drug treatment cell well—optical density of blank control well; T0=optical density of cell well before drug treatment—optical density of blank control well; C=optical density of cell well of solvent control group—optical density of blank control well. […] The experiment was independently repeated 1˜3 times, and subject to biological statistical analysis.

HCC827 (EGFR dE746-A750) = conditions: Homo sapiens, HCC827; EGFR mutant cell line; range of GI50; read-out: GI50 HCC827
Experimental: as §1, §2, §3, §4, §5

PC-9 (EGFR dE746-A750) = conditions: Homo sapiens
Experimental: as §1, §2, §3, §4, §5

[1] = test system: PC-9ER (EGFR delE746-A750/T790M); conditions: Homo sapiens, PC-9/ER; EGFR mutant cell line; range of GI50; read-out: GI50 PC9ER
Experimental: as §1, §2, §3, §4, §5

N87 (HER2 Amp) = conditions: Homo sapiens
AU565 (Her2 amp) = conditions: Homo sapiens, AU565; HER2 positive cell line; range of GI50; read-out: GI50 AU-565
SK-BR-3 (Her2 amp) = conditions: Homo sapiens, SK-BR-3; HER2 positive cell line; range of GI50; read-out: GI50 SK-BR-3
Experimental: Human lung adenocarcinoma cell line Calu-3 (ATCC) was cultured with 1×MEM complete medium (10% FBS, 1% double-antibiotics, 1% NEAA (Gibco), 2 mM glutamine and 1 mM of sodium pyruvate). Human breast cancer cell line SK-BR-3 was cultured with McCOY'S5A complete medium (10% FBS). Human colon cancer cell line SNU1040 (HER2 V777M positive) (ATCC) and human bronchoalveolar adenocarcinoma cell line NCI-H1781 (expressing HER2 exon 20 G776VC mutation) (ATCC) were cultured with 1×RPMI1640 complete medium (10% FBS), respectively.
as §2, §3, §4, §5

[2] = test system: A431 (EGFR WT, amplification and high expression); conditions: Homo sapiens, A-431; EGFR wild type cell line; range of GI50; read-out: GI50 A431
From the text: (§6) EGFR wild type cell lines: human epidermal cancer cell line A431 (EGFR WT, amplification and high expression, from Shanghai Cell Bank of Chinese Academy of Sciences and ATCC), NSCLC cell lines NCI-H460 (EGFR WT, Kras G61H and PI3KCA E545K mutants, ATCC) and NCI-H1299 (EGFR WT, ATCC), melanoma cell line A375 (EGFR WT and BRAF V600E mutant, from Shanghai Cell Bank of Chinese Academy of Sciences, ATCC), human lung cancer cell line NCI-H292 (EGFR WT, from human lung mucoepidermoid carcinoma/lymphatic metastasis, purchased from Shanghai Cell Bank of Chinese Academy of Sciences) were cultured with 1×RPMI1640 complete medium which was supplement with 10% FBS. NSCLC cell line A549 (EGFR WT and Kras G12S mutant, from Shanghai Cell Bank of Chinese Academy of Sciences) was cultured with 1×Ham'S F12K complete medium which was supplement with 10% FBS, 1% double-antibiotics and 2 mM glutamine.
as §2, §3, §4, §5

A549 (EGFR WT) = conditions: Homo sapiens, A549
From the text: as §6, §2, §3, §4, §5

[3] = test system: H1299 (EGFR wt, Nras Q61K); conditions: Homo sapiens, NCI-H1299; EGFR wild type cell line; range of GI50; read-out: GI50 H1299
From the text: as §6, §2, §3, §4, §5

[4] = test system: H460 (EGFR wt, Kras G61H); conditions: Homo sapiens, NCI-H460; EGFR wild type cell line; range of GI50; read-out: GI50 H460
From the text: as §6, §2, §3, §4, §5

[5] = EGFR mutant cell line, range of GI50, read-out: GI50 H1975
[6] = EGFR mutant cell line, range of GI50, read-out: GI50 PC-9
[7] = HER2 positive cell line, range of GI50, read-out: GI50 N87
[8] = EGFR wild type cell line, range of GI50, read-out: GI50 A549
[9] = Table 13, 72 h, read-out: Range of GI50 H1975 (EGFR L858R/T790M)
[10] = Table 13, 72 h, read-out: Range of GI50 PC-9 (EGFR dE746-A750)
[11] = Table 13, 72 h, read-out: Range of GI50 N87 (HER2 Amp)
[12] = Table 13, 72 h, read-out: Range of GI50 A549 (EGFR WT)

Row | SMILES | GI50 (H1975 (EGFR L858R/T790M); [5]) [µM] | GI50 (HCC827 (EGFR dE746-A750)) [µM] | GI50 (PC-9 (EGFR dE746-A750); [6]) [µM] | GI50 [1] [µM] | GI50 (N87 (HER2 Amp); [7]) [µM] | GI50 (AU565 (Her2 amp)) [µM] | GI50 (SK-BR-3 (Her2 amp)) [µM] | GI50 [2] [µM] | GI50 (A549 (EGFR WT); [8]) [µM] | GI50 [3] [µM] | GI50 [4] [µM] | GI50 (H1975 (EGFR L858R/T790M); [9]) [µM] | GI50 (PC-9 (EGFR dE746-A750); [10]) [µM] | GI50 (N87 (HER2 Amp); [11]) [µM] | GI50 (A549 (EGFR WT); [12]) [µM]
1 | C=CC(=O)Nc1cc(Nc2ncnc(Nc3cccc(Cl)c3)n2)c(OC)cc1N(C)CCN(C)C [Compound 108, N-(5-(4-(3-chloro-phenylamino)-[1,3,5]triazin-2-ylamino)-2-((2-dimethylamino-ethyl)-methyl-amino)-4-methoxyl-phenyl)-acrylamide] | 0.01 to 0.1 | < 0.01 | < 0.01 | < 0.01 | < 0.01 | 0.01 to 0.1 | 0.01 to 0.1 | 0.1 to 1 | > 1 | > 1 | > 1 |  |  |  | 
2 | C=CC(=O)Nc1cc(Nc2nccc(Nc3cccc(Cl)c3F)n2)c(OC)cc1N(C)CCN(C)C [Compound 14, N-(5-(4-(3-chloro-2-fluorophenyl-amino)-pyrimidin-2-ylamino)-2-(2-(dimethylamino-ethyl)-methyl-amino)-4-methoxyl-phenyl)-acrylamide] | 0.1 to 1 | 0.01 to 0.1 | 0.01 to 0.1 | 0.1 to 1 | 0.1 to 1 | 0.1 to 1 | 0.1 to 1 | > 1 | > 1 | > 1 | > 1 |  |  |  | 
3 | C=CC(=O)Nc1cc(Nc2cc(-c3cn(C)c4ccc(F)cc34)ncn2)c(OC)cc1N(C)CCN(C)C [Compound 188, N-(2-((2-dimethylamino-ethyl)-methylamino)-5-(6-(5-fluoro-1-methyl-1H-indol-3-yl)-pyrimidin-4-ylamino)-4-methoxyl-phenyl)-acrylamide] | 0.01 to 0.1 | < 0.01 | < 0.01 | < 0.01 | 0.01 to 0.1 | 0.01 to 0.1 | < 0.01 | 0.1 to 1 | > 1 | > 1 | > 1 |  |  |  | 
4 | C=CC(=O)Nc1cc(Nc2ncnc(Nc3cccc(Br)c3)n2)c(OC)cc1N1CCCN(C)CC1 [Compound 130, N-[5-[4-(3-bromo-phenylamino)-[1,3,5]triazin-2-ylamino]-4-methoxyl-2-(4-methyl-[1,4]diazepane-1-yl)-phenyl]-acrylamide] | 0.01 to 0.1 | < 0.01 | 0.01 to 0.1 |  | < 0.01 | < 0.01 | 0.01 to 0.1 | 0.1 to 1 |  |  |  |  |  |  | 
5 | C=CC(=O)Nc1cc(Nc2ncnc(Nc3cccc(Br)c3)n2)c(OC)cc1N1CCC(N2CCCCC2)CC1 [Compound 119, N-{2-[1,4′]-piperidin-1′-yl-5-[4-(3-bromo-phenylamino)-[1,3,5]triazin-2-amino]-4-methoxyl-phenyl}-acrylamide] | < 0.01 | < 0.01 | < 0.01 |  | < 0.01 | < 0.01 | 0.01 to 0.1 | 0.1 to 1 |  |  |  |  |  |  | 
6 | C=CC(=O)Nc1cc(Nc2cc(Nc3cc(OC)c(Cl)cc3Cl)ncn2)c(OC)cc1OCCN1CCCCC1 [Compound 246] |  |  |  |  |  |  |  |  |  |  |  | 0.01 to 0.1 | 0.01 to 0.1 | 0.01 to 0.1 | > 1
7 | C#Cc1cc(Nc2cc(Nc3cc(NC(=O)C=C)c(N(C)CCN(C)C)cc3OC)ncn2)ccc1OC [Compound 251, N-(5-(6-(3-acetenyl-4-methoxyl-phenylamino)-pyrimidin-4-yl-amino)-2-((2-dimethylamino-ethyl)-methyl-amino)-4-methoxyl-phenyl)-acrylamide] |  |  |  |  |  |  |  |  |  |  |  | < 0.01 | < 0.01 | < 0.01 | > 1
8 | C=CC(=O)Nc1cc(Nc2nccc(-n3ccc4c(-n5c(C)ccc5C)cc(Br)cc43)n2)c(OC)cc1N(C)CCN(C)C [Compound 214] |  |  |  |  |  |  |  |  |  |  |  | 0.01 to 0.1 | 0.01 to 0.1 | 0.01 to 0.1 | > 1
9 | C=CC(=O)Nc1cc(Nc2cc(Nc3ccc(OC)c(Br)c3)ncn2)c(OC)cc1N(C)CCN(C)C [Compound 224, N-(5-(6-(4-methoxyl-3-bromo-phenylamino)-pyrimidin-4-yl-amino)-2-((2-dimethylamino-ethyl)-methyl-amino)-4-methoxyl-phenyl)-acrylamide] |  |  |  |  |  |  |  |  |  |  |  | 0.01 to 0.1 | < 0.01 | 0.01 to 0.1 | > 1
10 | C=CC(=O)Nc1cc(Nc2cc(Nc3cc(OC)c(Cl)cc3Cl)ncn2)c(OC)cc1N1CCN(C)CC1 [Compound 239, N-(5-(6-(2,4-dichloro-5-methoxyl-phenylamino)-pyrimidin-4-yl-amino)-2-(4-methyl-piperazin-1-yl)-4-methoxyl-phenyl)-acrylamide] |  |  |  |  |  |  |  |  |  |  |  | 0.01 to 0.1 | < 0.01 | 0.01 to 0.1 | > 1
11 | C=CC(=O)Nc1cc(Nc2cc(Nc3ccc(OC(C)(C)C)c(Cl)c3)ncn2)c(OC)cc1N(C)CCN(C)C [Compound 250, N-(5-(6-(3-chloro-4-tert-butoxy-phenylamino)-pyrimidin-4-yl-amino)-2-((2-dimethylamino-ethyl)-methyl-amino)-4-methoxyl-phenyl)-acrylamide] |  |  |  |  |  |  |  |  |  |  |  | 0.01 to 0.1 | < 0.01 | < 0.01 | > 1
